Test results: publication PMC7146544, “Dual Plasmepsin-Targeting Antimalarial Agents Disrupt Multiple Stages of the Malaria Parasite Life Cycle” (Cell Host & Microbe, 2020)
Several values for one entry are separate records, joined by “and”; a condition that tells them apart may be missing. Equal entries are not always repeated. Where two headings read alike, the source gives them in different places.

Legend:
[1] = tested on: P. falciparum; test: P. falciparum asexual blood-stage growth inhibition (LDH or SYBR Green flow cytometry); format: cell-based, Plasmodium falciparum
Method: For High Throughput Screening (HTS) of compounds we used the lactate dehydrogenase (LDH) assay to detect parasitemia ([Makler et al., 1993], [Oduola et al., 1997]) formatted in a 384 well assay using an Echo555 (Labcyte). The P. falciparum assay was conducted with minor modifications ([Gamo et al., 2010]). Briefly, an inoculum of parasitized red blood cells at 0.7% parasitemia and 2% hematocrit in RPMI-1640, 5% AlbuMAX, 2% d-sucrose, 0.3% glutamine and 150 μM hypoxanthine was used for the assay. Assay plates (Greiner #781098, 384 well, white, tissue culture treated) were prepared by dispensing 1 μl of compound from master plates at 20 μM (10% DMSO stock) into 9ul pre-dispensed growth media in each well. The parasite inoculum (30 μl) was dispensed into plates containing compounds using a Multidrop Combi dispenser (Thermo Scientific). Final assay volume was 40 μl and final compound concentration was 500 nM. The positive growth control was 0.25% DMSO and the negative growth control was 100 nM chloroquine. Plates were incubated at 37 °C for 72 h in an atmosphere of […]. Following 72 h growth, plates were sealed with parafilm and frozen at −80 °C overnight. Plates were thawed at room temperature for at least 4 h prior to LDH activity being measured. 45 μl of fresh LDH reaction mix (174 mM sodium l-lactate, 214 μM 3-acetyl pyridine adenine dinucleotide (APAD), 270 μM Nitro Blue tetrazolium chloride (NBT), 4.35 U ml-1 diaphorase, 0.7% Tween 20, 100 mM Tris-HCl pH 7.5) was dispensed into each well using a Multidrop Combi dispenser. Plates were shaken to ensure mixing and absorbance at 650 nm was measured in an EnVision (PerkinElmer) plate reader after 30 min of incubation at room temperature. Data were normalized to percent growth inhibition using positive and negative controls and analyzed using Dotmatics 5.3 and Spotfire 7.11.1 (Tibco) software.
All wells were backfilled with DMSO to 45 nL such that this remained constant (0.1% DMSO). The positive growth control was 0.1% DMSO and the negative growth control was 100 nM chloroquine. Parasite inoculum (40 μl) was dispensed into plates containing compounds as described above. All other culture and lactate dehydrogenase (LDH) reaction methods are as described previously ([Makler et al., 1993], [Oduola et al., 1997]).
(§1) After 72 h incubation at 37°C each well was fixed at room temperature for 30 min with 50 μL of 0.25% glutaraldehyde (ProSciTech) diluted in PBS. Following centrifugation at 1200 rpm for 1 min, supernatants were discarded and parasites were stained with 50 μL of 5X SYBR Green (Invitrogen) diluted in PBS. 50,000 cells were counted by flow cytometry using a Cell Lab Quanta SC – MPL Flow Cytometer (Beckman Coulter) ([Bacon et al., 2007]). Growth was expressed as a percentage of the parasitemia obtained using a vehicle control. All samples were tested in triplicate. EC50 values were determined using GraphPad Prism.

[2] = tested on: WM5 and 4 resistant P. falciparum; test: microbe, parasite or virus in culture; format: cell-based, Plasmodium falciparum
Method: as §1
The parent and resistant lines were then cloned by limiting dilution, the EC50 for each line was determined and genomic DNA was purified from clonal parasites (QIAGEN Blood and Tissue Kit).

[3] = target: T1, P. falciparum aspartic protease, PMV (Plasmodium falciparum, UniProt Q8I6Z5); test: Peptide cleavage (FRET) assay, PMV; format: biochemical; conditions: calculated from IC50 with Cheng-Prusoff equation
T1 construct: made in house

[4] = tested on: HepG2 cells; test: EC50 for HepG2 cells; format: cell-based; conditions: Homo sapiens
[5] = tested on: 3D7 parasite cultures; test: Time of drug killing; format: cell-based, Plasmodium falciparum; conditions: 80nM WM4, 40nM WM5, 5nM WM382, added to early rings
Method: 3D7 parasite cultures were synchronized using 5% sorbitol (Sigma) twice at 46 h intervals then again when the culture was a mix of late schizonts and early rings. […] The parasitemia of each culture was quantitated every 8 h for 48 h by collecting 50 μL samples for counting by flow cytometry (as previously described). The developmental stage of the parasites was confirmed at each time point by microscopic examination of Giemsa stained thin blood films. Media and compound were replaced at the 32 h time point.

[6] = tested on: P. berghei; test: Peters' 4-day suppressive test for P. berghei infection in mice; format: in vivo, Plasmodium berghei; conditions: intraperitoneal, 20 mpk q.d., 4 days, Swiss mice
Method: For results shown in Figure 1 A male Swiss mice were infected intraperitoneally (IP) with 1 × 10^6 P. berghei ANKA-parasitised red blood cells withdrawn from a previously infected donor mouse. Test compounds were prepared in a vehicle consisting of 10% DMSO/90% Solutol (5% Solutol® HS-15 in 0.9% saline). […] Peripheral blood samples were taken 24 h after administration of the last dose, and parasitemia was measured by microscopic analysis of Giemsa-stained blood smears. Parasitemia values were averages for 6 mice per group and are expressed as percent parasitemia. For results shown in Figure 4A ‘donor’ female Swiss mice were infected intraperitoneally (IP) with blood stage P. berghei parasites constitutively expressing GFP (P. berghei ANKA GFPcon 259cl2 ([Franke-Fayard et al., 2004]). Three days later, groups of 4 ‘acceptor’ Swiss mice were infected intravenously (IV) with 1 × 10^7 parasitised erythrocytes from the ‘donor’ mice. Two h post infection, experimental mice (4 per cohort) were left untreated (control mice) or treated orally on 4 consecutive days with test drugs formulated in 20% DMSO/60% PG/20% water (v/v/v) or chloroquine dissolved in water. […] Peripheral blood samples were taken 12 h after the last treatment, and parasitemia measured by flow cytometry (proportion of GFP-positive cells in 100,000 recorded events using FACSCalibur, BD) and microscopic analysis of Giemsa-stained blood smears. Parasitemia values were averages for 4 mice per group and are expressed as percent parasitemia.

[7] = Pharmacokinetic attributes (no method given); conditions: in vivo
[8] = target: T2, recombinant PMX protein (rPMX) (Plasmodium falciparum, UniProt Q8IAS0)
Method: (§2) All wells were backfilled to 200 nL DMSO such that it remains constant across the assay plates (1% final). IC50 values were calculated by Dotmatics 5.3 and Spotfire 7.11.1 software using a nonlinear regression four-parameter fit analysis. The equation used is sigmoidal dose response (variable slope), Y = bottom + (top − bottom)/(1+10((logEC50 − X) × Hill Slope)). Compound Ki values were calculated from the IC50s using the Cheng-Prusoff equation, Ki = IC50/(1 + [S]/Km).
(§3) All compound potency assays were conducted in 20 μl total volume. For each assay, 10 μl of recombinant enzymes in respective assay buffers (Table) were dispensed into compound containing assay plates using a Multidrop Combi dispenser and allowed to incubate for 15 min. The reactions were started with a further 10 μl addition of FRET peptide substrates and reactions incubated at 37 °C for various times (Table).Samples were excited at 340 nm and fluorescence emission measured at 492 nm using an Envision fluorescence plate reader (Perkin-Elmer).

[9] = target: T2, recombinant PMX protein (rPMX); test: biochemical
Method: as §2, §3

[10] = tested on: protein processing by PMIX and PMX in P. falciparum; test: Processing inhibition assays (immunoblot of merozoites and supernatants); format: cell-based, Plasmodium falciparum; conditions: E64 10 μM, WM4 40 nM, WM382 2.5 nM
Method: Processing inhibition assays were performed as previously described ([Boyle et al., 2010]). Synchronized late trophozoite/early schizont cultures to which protease inhibitors had already been added, were passed over LD magnetic columns (Miltenyi Biotech) to remove uninfected erythrocytes. The cysteine protease inhibitor E64 (Sigma) was used at 10 μM. […] A control dish without any protease inhibitor was also included. Parasites were eluted from columns with complete RPMI 1640 culture medium to which the appropriate inhibitor at the same concentration had been added. Eluted parasites were adjusted to 5x10^6 schizonts/mL and 150 ul added per well of a 96-well flat-bottomed culture dish. […] Parasites from each condition were spun at 10000 g/10 min so that merozoite and supernatant fractions could be separately collected. Proteins from both fractions were extracted with Reducing sample buffer and separated on 4%–12% or 3%–8% acrylamide gels (NuPAGE, Invitrogen).

[11] = tested on: P. falciparum 3D7; test: Ring stage survival assay for artesunate; format: cell-based, Plasmodium falciparum; conditions: 3D7, 700 nM artesunate 6 h, then 66 h drug-free
Method: The method for determining sensitivity to artesunate was as described ([Kite et al., 2016]). Parasites were synchronized twice with 5% sorbitol at 46 h intervals and again when they were a mixture of schizonts and early rings. Triplicate 1 mL cultures were set up in 24 well plates (Falcon) at 0.5% parasitemia and 2% hematocrit with either 700 nM artesunate (Sigma) or 0.1% DMSO vehicle control. Following 6 h incubation, the cells were washed and incubated in drug-free media for a further 66 h. A 50 μL sample of each culture was fixed with 0.25% glutaraldehyde and stained with 5X SYBR then parasitemia was determined by flow cytometry. Percentage survival is parasitemia relative to vehicle treated parasites.
The percentage survival of all parasite lines was high in our experiments (∼5% for 3D7) was high compared to that described previously ([Kite et al., 2016]) most likely because we used a FACS based method was used for detection and quantitation. However, we were clearly able to distinguish the resistant CAM3 R539T line from the sensitive CAM3 Rev and 3D7 parasite lines.

[12] = tested on: Dd2 parasites; format: cell-based, Plasmodium falciparum; conditions: inocula 10^5 to 10^9 parasites, up to 90 days
From the text: Each experiment was monitored by weekly microscopic examination of thin blood films. Media and compound were replaced three times each week.

[13] = tested on: P. berghei; test: Dose ranging test for P. berghei infection in mice; format: in vivo, Plasmodium berghei; conditions: chloroquine 10 mpk oral q.d. 4 days
Method: Control mice were treated orally with chloroquine for 4 days under q.d. dosing regimen at 10 mpk/day. From day 2 to 30 post infection, parasitemia was measured daily by flow cytometry and microscopy, as described above. Survival of animals to day 30 post infection, with no detectable parasites in the peripheral blood, were considered to be cured (i.e., 100% efficacy).

[14] = tested on: P. falciparum; test: P. falciparum humanized NOD-scid IL2R_null mouse model; conditions: chloroquine 50 mpk oral q.d. 4 days from day 3
Method: Compounds were tested in the murine P. falciparum SCID model ([Angulo-Barturen et al., 2008]). […] The mice were intravenously infected with 2 × 10^7 P. falciparum Pf3D7-infected erythrocytes (day 0) ([Angulo-Barturen et al., 2008]). On day 3 after infection, mice were randomly allocated to treatments that were administered once a day for 4 consecutive days (n = 3 mice) by oral gavage at 10 mL/kg. Parasitemia was measured by microscopy. Chimerism was monitored by flow cytometry using anti-murine erythrocyte TER119 monoclonal antibody (PharMingen, San Diego, CA) and SYTO-16 and then analyzed by flow cytometry in serial 2 μL blood samples taken every 24 h until assay completion.

[15] = 3D7 parasite line, asexual blood stage, read-out: EC50, inhibition of P. falciparum growth

T2 sequence (Q8IAS0 222-573): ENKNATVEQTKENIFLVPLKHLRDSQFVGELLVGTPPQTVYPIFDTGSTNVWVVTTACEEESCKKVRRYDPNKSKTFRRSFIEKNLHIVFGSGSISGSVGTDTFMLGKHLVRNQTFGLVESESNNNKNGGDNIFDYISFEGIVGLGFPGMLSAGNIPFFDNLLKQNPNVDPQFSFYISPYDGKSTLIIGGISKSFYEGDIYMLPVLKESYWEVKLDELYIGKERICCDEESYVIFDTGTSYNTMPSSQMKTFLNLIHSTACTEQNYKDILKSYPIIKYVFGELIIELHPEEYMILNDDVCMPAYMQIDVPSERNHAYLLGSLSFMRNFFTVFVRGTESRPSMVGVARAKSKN
T1 sequence (Q8I6Z5 whole entry): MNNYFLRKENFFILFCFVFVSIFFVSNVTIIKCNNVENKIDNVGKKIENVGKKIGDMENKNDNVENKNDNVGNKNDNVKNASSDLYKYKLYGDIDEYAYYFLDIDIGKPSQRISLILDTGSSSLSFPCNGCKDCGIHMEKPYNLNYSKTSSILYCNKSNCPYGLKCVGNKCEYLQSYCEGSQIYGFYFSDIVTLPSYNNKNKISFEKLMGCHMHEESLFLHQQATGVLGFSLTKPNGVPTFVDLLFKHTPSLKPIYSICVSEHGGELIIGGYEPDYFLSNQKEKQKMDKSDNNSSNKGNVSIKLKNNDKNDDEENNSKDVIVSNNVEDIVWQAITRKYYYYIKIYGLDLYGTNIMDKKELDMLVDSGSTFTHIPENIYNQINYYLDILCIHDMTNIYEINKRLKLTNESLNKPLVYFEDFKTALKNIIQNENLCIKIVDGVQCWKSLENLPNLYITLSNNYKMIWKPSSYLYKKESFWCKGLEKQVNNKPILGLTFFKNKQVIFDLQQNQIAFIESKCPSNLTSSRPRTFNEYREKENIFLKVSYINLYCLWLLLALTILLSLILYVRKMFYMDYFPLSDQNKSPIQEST

CC(C)CC(c1ccc(C(F)(F)F)c(C(=O)N2Cc3nccnc3C2)c1)N1C(=N)NC(CC2CC2)(c2ccccc2)CC1=O (racemic) [WM5]
EC50 ([1]; Plasmodium falciparum, Figure 2C, mean ± SD, three experiments, read-out: EC50 P. falciparum): 9.3 ± 2.7 nM
EC50 ([2]; Plasmodium falciparum, 3D7, read-out: EC50, 3D7, parental line 3D7): 13.5 ± 0.78 nM
EC50 ([2]; Plasmodium falciparum, 3D7, read-out: EC50, 3D7-WM4.1, WM4-resistant line 3D7-WM4.1): 202 ± 7.23 nM
EC50 ([2]; Plasmodium falciparum, 3D7, read-out: EC50, 3D7-WM4.2, WM4-resistant line 3D7-WM4.2, Figure S1): 144 ± 46.6 nM
EC50 ([2]; Plasmodium falciparum, 3D7, read-out: EC50, 3D7-WM5.1, WM5-resistant line 3D7-WM5.1): 172 ± 6.95 nM
EC50 ([2]; Plasmodium falciparum, 3D7, read-out: EC50, 3D7-WM5.2, WM5-resistant line 3D7-WM5.2, Figure S1): 118 ± 4.7 nM
EC50 ([2]; Plasmodium falciparum, 3D7, read-out: EC50, 3D7-WM5.3, WM5-resistant line 3D7-WM5.3, Figure S1): 51.8 ± 19.7 nM
fold resistance of 3D7-WM5.1 compared with 3D7 ([2]; printed as X in Figure 1E): 13 fold
EC50 ([2]; read-out: EC50, 3D7-WM4.1, WM4-resistant line 3D7-WM4.1): 107 ± 2.2 nM
EC50 ([2]; read-out: EC50, 3D7-WM5.1, WM5-resistant line 3D7-WM5.1): 172 nM and 117 nM
EC50 ([2]; read-out: EC50, 3D7, parental line 3D7): 11.1 ± 3.7 nM
Ki [3]: 3300 ± 540 nM
EC50 [4]: 17900 ± 2000 nM
stage of arrest of blood-stage development [5]: arrested at late schizont stage
in vivo activity against P. berghei infection [6]: partial efficacy
pharmacokinetic attributes [7]: did not have desirable pharmacokinetic attributes
Fold Selectivity PMX v PMV [8]: 1,755 fold
IC50 [9]: 3.02 nM
Ki [9]: 1.9 ± 0.6 nM

CC(C)C[C@H](NC(=O)[C@H]1O[C@@H]1C(=O)O)C(=O)NCCCCN=C(N)N [E64, reference compound]
AMA1 processing in merozoites [10]: not affected
ASP processing [10]: ASP was processed
MTRAP processing [10]: did not inhibit its processing
PMIX processing in parasites [10]: not inhibited
RAP1 processing [10]: Two processed forms of RAP1 (p82 and p69) are detected
RON3 processing [10]: did not block processing
Rh1 processed fragments, release into the supernatant [10]: the processed fragments were released into the supernatant

CC(NC(=O)c1cccc(C(c2ccccc2)N2C(=N)NC(C)(C(C)C)CC2=O)c1)c1ccccc1 (stereo not shown) [R-WM4]
EC50 [1, 15]: 4.6 nM

CC(C)CC(c1ccc(C(F)(F)F)c(C(=O)N2Cc3nccnc3C2)c1)N1C(=N)NC(CC2CC2)(c2ccccc2)CC1=O (stereo not shown) [R-WM5]
EC50 [1, 15]: 10 nM

CC(NC(=O)c1cccc(C(c2ccccc2)N2C(=N)NC(C)(C(C)C)CC2=O)c1)c1ccccc1 (stereo not shown) [S-WM4]
EC50 [1, 15]: 440 ± 113 nM

CC(C)CC(c1ccc(C(F)(F)F)c(C(=O)N2Cc3nccnc3C2)c1)N1C(=N)NC(CC2CC2)(c2ccccc2)CC1=O (stereo not shown) [S-WM5]
EC50 [1, 15]: 688 ± 218 nM

C[C@H]1[C@H](OC(=O)CCC(=O)O)O[C@@H]2O[C@@]3(C)CC[C@H]4[C@H](C)CC[C@@H]1[C@@]24OO3 [artesunate]
percentage survival, ring stage survival assay [11]: ~5%

O=C1C(O)=C([C@H]2CC[C@H](c3ccc(Cl)cc3)CC2)C(=O)c2ccccc21 [atovaquone]
selection of resistant parasites, time to resistance [12]: Parasites resistant to atovaquone were selected

CCN(CC)CCCC(C)Nc1ccnc2cc(Cl)ccc12 (stereo not shown) [chloroquine, reference compound]
day post-infection on which parasites were detectable [13]: 10 days
day by which mice were cleared of parasitemia [14]: ≤ 7 days
